A short description of assay [1]: 2′,3′-dideoxy NTP preference (relative specificity kcat/Km NTP vs ddNTP). The format is biochemical. The text has this: Numbers reflect the relative specificity (kcat/Km) for an NTP vs. the corresponding ddNTP. Relative specificities could not be evaluated for the wild-type T7 RNAP because the ddNTPs are such poor substrates, but these relative specificities appear to be at least 150-fold.

The next assay relates to poly(dC). Nature of the assay: Apparent miscoding on homopolymeric template poly(dC). The settings on record: poly(dC). The format is biochemical. On the procedure: (§1) Transcription reactions: Transcription reactions were carried out in 40 mM Tris-Cl pH 8.0, 15 mM MgCl2, and 5 mM DTT or 20 mM Manganese Citrate pH 8.0, 5 mM DTT at 37° C. Template, polymerase, and NTP concentrations were as indicated in the legends to the figures and tables. Relative activity determinations were made by taking 4 μl aliquots of reactions at 5, 10, and 20 minute time points and spotting on to DE81 filter paper. Unincorporated nucleotides were separated from incorporated nucleotides by washing the filter paper with 0.5 M KH2PO4 pH 7.0 and retained radioactive nucleotide was quantitated with a Molecular Dynamics phosphorimager. To evaluate rNTP/dNTP selectivity, reactions were run with 4 rNTPs and pT75 as template and α-P^32 rNTPs or α-P^32 dNTPs were used to label the transcripts. The relative rate of incorporation of an rNTP vs. its cognate dNTP was determined from the relative percentages of labeled rNTP vs. dNTP incorporated into DE81 retainable RNA at 5, 10, and 20 minute time points. Apparent miscoding frequencies were determined similarly, though in this instance the template was a single-stranded homopolymer and the reaction contained the complementary unlabeled rNTP, and complementary α-P^32 rNTP or one of the 3 non-complementary α-P^32 rNTPs. The relative percentages of labeled complementary vs. non-complementary rNTPs incorporated at 5, 10 and 20 minute time points gave an apparent miscoding rate. The rNTP/dNTP selectivity assay was used to test the following T7 RNAP mutants for effects on substrate discrimination: D537S, D537E, S539A, R5S1S, D552S, R627S, K631S, L637A, Y639S, Y639F, Y639A, G640A, F644A, G645A, Q649S, […], H811S, H811A, D812A, D812E, D812S, D812N, D879E+ΔF882+ΔA883, D879E+A881T+ΔA883, D879E+F884+A885, D879E+F882Y, D879E+ΔA883, D879E+F882W, D879E.
(§2) An increase in miscoding would be reflected in an increase in the rate of incorporation of the non-complementary NTP into RNA.
(§3) Numbers are averages from 2 experiments and reflect the ratio of the percentages of labeled rNTPs incorporated into RNA in reactions in which unlabeled complementary rNTPs were in great excess (0.5 mM) to labeled complementary or non-complementary rNTPs. Templates were at 0.1 mg/ml. Polymerases were at 10^−8 M in Mg^2+ buffer and 10^−7 M in Mn^2+ buffer.
(§4) *The upper number refers to results obtained in Mg^2+ buffer, the lower number to results in Mn^2+ buffer. n.d.: G640A, Y639A, Y639S were poorly active in Mn^2+ buffer, or on poly(dT) under all conditions.

The subject of another assay is poly(dT). The experiment in a line: Apparent miscoding on homopolymeric template poly(dT). Format: biochemical. The protocol: as §1, §2, §3, §4
Assay [2] concerns 12 base DNA or RNA primers hybridized to a DNA template. The experiment in a line: DNA- and RNA-primed synthesis of DNA and RNA. The format is biochemical. The text has this: DNA- and RNA-primed synthesis of DNA and RNA: In the assays described so far de novo initiated synthesis has been examined. T7 RNAP can also extend RNA primers. Therefore, the abilities of both polymerase to carry out DNA or RNA primed synthesis of DNA and RNA (FIG. 5) were examined.
Transcription reactions contained end-labeled 12 base DNA or RNA primers of identical sequence (GGACACGGCGAA, SEQ ID NO: 4) hybridized to a DNA template ([…] TAAGTATCC, SEQ ID NO: 5). Primer-template concentration was 10^-5 M. Reactions contained the indicated polymerases (10^-7 M) and NTPs. NTP concentrations and electrophoresis as in FIG. 1.

The conditions of assay [3]: transcripts synthesized in vivo; cited from earlier work.
In a further assay the test system is supercoiled pT75. Nature of the assay: Transcript elongation rate in 3 rNTP + 1 dNTP reactions. Format: biochemical. The protocol:
Elongation rate determinations were carried out as described (Golomb and Chamberlin, 1974) with some variations (Bonner, et al., 1994).
Elongation rates of Y639F in reactions containing a single dNTP: Elongation rates for Y639F in reactions with 4 rNTPs or 1 dNTP and 3 rNTPs were determined by analyzing aliquots, taken at 10 second intervals, from transcription reactions initiated on supercoiled PT75 by adding NTPs to otherwise complete reaction mixes (FIG. 6).
The template was supercoiled pT75 at 5×10^-7 M. Y639F polymerase was used at a concentration of 10^-6 M. Reactions contained the indicated NTPs. Labeling was with α-P32-rATP (lane e) or α-P32-rGTP (other lanes). After initiation of the reactions aliquots were taken at 10 second intervals and analyzed on 1% agarose denaturing-formaldehyde gels. […] The bars indicate the positions of λ DNA markers.
When analyzed on denaturing agarose gels (FIG. 6) the heterogeneously sized transcripts from these reactions are resolved as a smear with the trailing edge of the smear corresponding to transcripts initiated at t=0 and from which the maximal transcript elongation rate can be determined (Golomb and Chamberlin, 1974; Bonner, et al., 1994). The following elongation rate reductions (relative to a ‘4 rNTP’ reaction) were obtained for reactions containing a 3 rNTPS and 1 dNTP:dATP, ˜3-fold; dUTP, ˜2-fold; dGTP ˜1.5-fold; dCTP, 1-1.5-fold. Because of its poor activity in reactions with dNTPs it was difficult to determine the corresponding elongation rate reductions for the W.T. enzyme.

The values below come from patent US20050069907A1, “Methods for using double-mutant RNA polymerases with reduced discrimination between non-canonical and canonical nucleoside triphosphates” (priority 2002, published 2005).

Where only a bound is given, the exact number is not on record here.

In the case of “W.T.: wild-type T7 RNA polymerase [reference compound]”, in assay [1], the “Relative specificity NTP vs. corresponding ddNTP” value was “at least 150 fold”. Moreover, in the assay on poly(dC) (Mg^2+ buffer), the “Relative rate of incorporation GTP/ATP” value is 233 and the “Relative rate of incorporation GTP/CTP” value is given as 400. Further, in the assay with poly(dC) (Mn^2+ buffer), the “Relative rate of incorporation GTP/ATP” value came out at 9.3, the “Relative rate of incorporation GTP/CTP” value was 32 and the “Relative rate of incorporation GTP/UTP” value is listed as 53 (Mn2+)*. Further, the “Increase in miscoding rates in Mn^2+ buffer, on average” value in the assay on poly(dT) is recorded as around 5 fold. Further, in the assay with poly(dT) (Mg^2+ buffer), the “Relative rate of incorporation ATP/CTP” value was above 340, the “Relative rate of incorporation ATP/GTP” value amounted to 170 and the “Relative rate of incorporation ATP/UTP” value is 121. For the same substance, in the assay with poly(dT) (Mn^2+ buffer), the “Relative rate of incorporation ATP/CTP” value is reported as 77, the “Relative rate of incorporation ATP/GTP” value turned out to be 50 and the “Relative rate of incorporation ATP/UTP” value is listed as 21.
“Y639F: T7 RNAP with wild-type tyrosine at position 639 substituted by phenylalanine”: the “Extension of DNA and RNA primers with dNTPs less efficient than with rNTPs” value in assay [2] is listed as around 4 fold. In addition, in the assay on poly(dC) (Mg^2+ buffer), the “Relative rate of incorporation GTP/ATP” value was 338, the “Relative rate of incorporation GTP/CTP” value was 550 and the “Relative rate of incorporation GTP/UTP” value is above 1760. Further, in the assay on poly(dC) (Mn^2+ buffer), the “Relative rate of incorporation GTP/ATP” value was 8, the “Relative rate of incorporation GTP/CTP” value was 40 and the “Relative rate of incorporation GTP/UTP” value is 55. Moreover, the “Protein per transcript compared to transcripts synthesized by wild-type enzyme” value in assay [3] is recorded as “½-⅓”. Besides, in the assay on poly(dT), the “Increase in miscoding rates in Mn^2+ buffer, on average” value is recorded as around 5 fold and the “Increase, relative to W.T., in ratio of rates of rGTP to rATP incorporation” value is reported as around 2 fold. Also, in the assay on poly(dT) (Mg^2+ buffer), the “Relative rate of incorporation ATP/CTP” value is given as above 94, the “Relative rate of incorporation ATP/GTP” value was 94 and the “Relative rate of incorporation ATP/UTP” value worked out at 94. Besides, in the assay with poly(dT) (Mn^2+ buffer), the “Relative rate of incorporation ATP/CTP” value was 60, the “Relative rate of incorporation ATP/GTP” value is 27 and the “Relative rate of incorporation ATP/UTP” value came to 20. Besides, the “Elongation rate reduction relative to 4 rNTP reaction” value in the assay with supercoiled pT75 (3 rNTPs and dATP) is given as around 3 fold. In addition, the “Elongation rate reduction relative to 4 rNTP reaction” value with supercoiled pT75 (3 rNTPs and dCTP) is reported as 1-1.5 fold. For the same substance, in the assay on supercoiled pT75 (3 rNTPs and dGTP), the “Elongation rate reduction relative to 4 rNTP reaction” value is recorded as around 1.5 fold. Further, the “Elongation rate reduction relative to 4 rNTP reaction” value with supercoiled pT75 (3 rNTPs and dUTP) was around 2 fold.
